From PubChem BioAssay AID652053 (Broad Institute, 2013)

Test system: Huh7 psiCHECK-miR122 Renilla luciferase reporter, 48 h
Assay: suppression of miR-122 activity, Renilla luciferase sensor – cell-based, Huh7 psiCHECK-miR122, cherry-pick, dose response (AID 652053)

| Structure (SMILES) | AC40 |
| --- | --- |
| COc1ccc(S(=O)(=O)Nc2ccc(S(=O)(=O)Nc3ccc(F)cc3)cc2)cc1C | 14.5 µM |
| C[C@H](CO)N1C[C@H](C)[C@@H](CN(C)CC2CCCCC2)Oc2c(NC(=O)C3CC3)cccc2C1=O | 0.602 µM |
| O=C(Cc1cccc2ccccc12)Nc1ccc(OC(F)F)c(Cl)c1 | 4.28 µM |
